Data published in PMC5485725, “QueF-Like, a Non-Homologous Archaeosine Synthase from the Crenarchaeota” (Biomolecules, 2017).

Biological target: T1, QueF-like (QueF-L) from Pyrobaculum calidifontis (Pyrobaculum calidifontis, UniProt A3MSP1)
T1 construct: codon-optimized synthetic gene in FactorXa/LIC vector (pLBI14), expressed in E. coli BL21(DE3); N-terminal His6 tag cut by Factor Xa; starts at Met1 (primer encodes MLKVSK..., ends ...PPVYI); decamer
T1 sequence (A3MSP1 1-109): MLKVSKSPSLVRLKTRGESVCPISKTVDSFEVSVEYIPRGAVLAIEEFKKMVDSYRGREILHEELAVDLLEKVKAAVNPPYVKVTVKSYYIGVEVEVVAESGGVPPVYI
Test: UV-Vis titration of thioimide absorbance at […] nm
Type: binding
Settings: read-out: apparent KD

Work on `N#Cc1c[nH]c2nc(N)[nH]c(=O)c12` [preQ0] yielded a Kd of 8 µM.
